The values that follow are results of earlier work, collected in US4603221A, “Process for preparing substituted tetralones” (Ethyl Corporation, priority 1985, dated 1986).

For the data set the following is noted: method generally in accordance with Gero et al., J. Org. Chem. 16, 1835-1838 (1951).

Consider `Cc1ccnc(C)c1` [2,4-lutidine], for which the “pKa Value” was 6.79.
`Cc1cccc(C)n1` [2,6-lutidine]: the “pKa Value” is reported as 6.62.
